Reference: patent US7576094B2, “Spiro derivatives as lipoxygenase inhibitors” (Eli Lilly and Company, priority 2004, dated 2009)

Target: T1, human recombinant 5-Lipoxygenase (Homo sapiens, UniProt P09917)
T1 sequence (P09917 1-674): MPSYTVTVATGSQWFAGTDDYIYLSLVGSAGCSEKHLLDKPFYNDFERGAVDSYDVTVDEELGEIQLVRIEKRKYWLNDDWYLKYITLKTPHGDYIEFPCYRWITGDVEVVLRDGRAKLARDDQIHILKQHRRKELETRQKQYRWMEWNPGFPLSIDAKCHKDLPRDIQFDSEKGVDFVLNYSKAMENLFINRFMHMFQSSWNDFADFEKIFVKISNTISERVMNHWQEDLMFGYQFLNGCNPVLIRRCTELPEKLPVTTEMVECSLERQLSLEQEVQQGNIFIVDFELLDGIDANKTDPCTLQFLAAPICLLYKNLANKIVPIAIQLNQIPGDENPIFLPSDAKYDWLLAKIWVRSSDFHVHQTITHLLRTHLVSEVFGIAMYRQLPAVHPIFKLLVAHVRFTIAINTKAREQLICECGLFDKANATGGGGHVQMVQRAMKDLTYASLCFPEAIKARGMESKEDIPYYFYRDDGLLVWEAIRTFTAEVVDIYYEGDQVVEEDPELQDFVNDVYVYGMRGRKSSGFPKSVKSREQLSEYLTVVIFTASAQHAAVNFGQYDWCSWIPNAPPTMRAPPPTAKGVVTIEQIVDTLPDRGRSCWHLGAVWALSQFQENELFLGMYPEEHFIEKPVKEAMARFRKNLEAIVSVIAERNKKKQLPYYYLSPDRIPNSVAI
Test: 5-Lipoxygenase Enzyme Assay
Format: biochemical
Settings: 70 μM arachidonic acid, 10 minute incubation at room temperature, FOX reagent, absorbance at 620 nm; read-out: inhibition of 5-Lipoxygenase with an IC50
From the text: This procedure was used for measuring the enzymatic activity of human recombinant 5-Lipoxygenase using a colorimetric method based on the ferric oxidation of xylenol orange.
• 96 well flat bottom microfilter plates (VWR, Catalog # 62402-933 9295) • Lipoxygenase screening assay buffer (Cayman, Catalog # 760710) • Human recombinant 5-Lipoxygenase (Cayman, Catalog # 60402) • Arachidonic Acid (Sigma, Catalog # A3555) • Xylenol orange tetra sodium salt (Aldrich, Catalog # 227854) • Iron (II) sulfate heptahydrate (Sigma, Catalog # F7002) • Sulfuric acid (95-98%) [18 M] • Methanol Procedure
Human recombinant 5-Lipoxygenase (Cayman Cat # 60402) was used in this assay. The test compound and/or vehicle was added to 0.5 μL 5-Lipoxygenase in 50 mM Tris-HCl buffer, pH 7.4. The reaction was initiated by addition of 70 μM arachidonic acid in Tris-HCl buffer, pH 7.4, and terminated after a 10 minute incubation at room temperature by addition of FOX reagent (25 mM sulfuric acid, 100 μM xylenol orange, 100 μM iron (II) sulfate, methanol:water 9:1). The yellow color of acidified xylenol orange was converted to a blue color by the lipid hydroperoxide-mediated oxidation of Fe^2+ ions and the interaction of the resulting Fe^3+ ions with the dye. The complex was allowed to form during a 1 hour incubation at room temperature with shaking. Absorbance of the Fe^3+ complex was then measured at […] using a spectrophotometer.
Negative controls contained enzyme during the incubation step but substrate was not added until after the FOX reagent. Compounds were screened at 5 concentrations in triplicate starting at 10 μM

Row | SMILES | IC50 [nM]
1 | Cc1c(C)c2c(c(C)c1OC(=O)CN(C)C)CCC1(CCC1)S2 [5′,7′,8′-trimethyl-3′,4′-dihydrospiro[cyclobutane-1,2′-thiochromen]-6′-yl (dimethylamino)acetate] | < 300
2 | Cc1c(C)c2c(c(C)c1O)C(CN)=CC1(CCC1)O2 [4-(aminomethyl)-5,7,8-trimethylspiro[chromene-2,1′-cyclobutan]-6-ol] | < 300
3 | CCCc1ccc([S+](=O)([O-])NCCN2CC3(CCC3)Cc3cc(O)c(C)c(C)c32)cc1 [N-(2-(6′-hydroxy-7′,8′-dimethyl-2′,4′-dihydro-1′H-spiro[cyclobutane-1,3′-quinoline]-1′-yl)ethyl)-4-propylbenzenesulfonamide] | < 300
4 | Cc1c(O)cc2c(c1C)N(c1ccc(N3CCNCC3)nc1)CC1(CCC1)C2 [7′,8′-dimethyl-1′-(6-(piperazin-1-yl)pyridin-3-yl)-2′,4′-dihydro-1′H-spiro[cyclobutane-1,3′-quinolin]-6′-ol] | < 300
5 | CCONC1CC2(CCC2)Oc2cc(CC)c(O)c(CC)c21 (stereo not drawn) [4-(ethoxyamino)-5,7-diethyl-3,4-dihydrospiro[chromene-2,1′-cyclobutan]-6-ol] | < 300
6 | CO/N=C1\CC2(CCC2)Oc2cc(C)c(O)c(C)c21 [6-hydroxy-5,7-dimethylspiro[chromene-2,1′-cyclobutan]-4(3H)-one O-methyloxime] | < 300
7 | COC(=O)c1ccc(CN2c3cc(C)c(O)c(C)c3CCC23CCC3)cc1 [methyl 4-((6′-hydroxy-5′,7′-dimethyl-3′,4′-dihydro-1′H-spiro[cyclobutane-1,2′-quinoline]-1′-yl)methyl)benzoate] | < 300
8 | COC(=O)c1ccc(N2CC3(CCC3)Cc3cc(O)c(C)c(C)c32)cc1 [methyl 4-(6′-hydroxy-7′,8′-dimethyl-2′,4′-dihydro-1′H-spiro[cyclobutane-1,3′-quinoline]-1′-yl)benzoate] | < 300
9 | CCO/N=C1\CC2(CCC2)Oc2cc(C)c(O)c(C)c21 [(4E)-6-hydroxy-5,7-dimethylspiro[chromene-2,1′-cyclobutan]-4(3H)-one O-ethyloxime] | < 300
10 | Cc1c2c(c(C)c(Cl)c1OC(=O)c1cccnc1)OC1(CCC1)CC2 [7-chloro-5,8-dimethyl-3,4-dihydrospiro[chromene-2,1′-cyclobutan]-6-yl nicotinate] | < 300
11 | Cc1cc2c(c(C)c1O)C(OC(C)C)CC1(CCC1)O2 (stereo not drawn) [4-isopropoxy-5,7-dimethyl-3,4-dihydrospiro[chromene-2,1′-cyclobutan]-6-ol] | < 300
12 | Cc1cc2c(c(C)c1O)CCC1(CCC1)N2Cc1ccc(Cl)cc1 [1′-(4-chlorobenzyl)-5′,7′-dimethyl-3′,4′-dihydro-1′H-spiro[cyclobutane-1,2′-quinolin]-6′-ol] | < 300
13 | COC(=O)CN1CC2(CC2)Cc2cc(O)c(C)c(C)c21 [methyl 2-(6′-hydroxy-7′,8′-dimethyl-2′,4′-dihydro-1′H-spiro[cyclopropane-1,3′-quinoline]-1′-yl)acetate] | < 300
14 | Cc1c(C)c2c(c(C)c1O)C(O)C1(CCC1)CN2c1ccc(Cl)cc1 (stereo not drawn) [1′-(4-chlorophenyl)-5′,7′,8′-trimethyl-2′,4′-dihydro-1′H-spiro[cyclobutane-1,3′-quinoline]-4′,6′-diol] | < 300
15 | CCCC(=O)NC1CC2(CCC2)Oc2c(C)c(C)c(O)c(C)c21 (stereo not drawn) [N-(6-hydroxy-5,7,8-trimethyl-3,4-dihydrospiro[chromene-2,1′-cyclobutan]-4-yl)butanamide] | < 300
16 | CON(C)C1CC2(CCC2)Oc2cc(C)c(O)c(C)c21 (stereo not drawn) [4-[methoxy(methyl)amino]-5,7-dimethyl-3,4-dihydrospiro[chromene-2,1′-cyclobutan]-6-ol] | < 300
17 | CCO/N=C1/CC2(CCC2)Oc2cc(C)c(O)c(C)c21 [(4Z)-6-hydroxy-5,7-dimethylspiro[chromene-2,1′-cyclobutan]-4(3H)-one O-ethyloxime] | < 300
18 | Cc1c(O)cc2c(c1C)N(c1ccc(O)cc1)CC1(CCC1)C2 [1′-(4-hydroxyphenyl)-7′,8′-dimethyl-2′,4′-dihydro-1′H-spiro[cyclobutane-1,3′-quinolin]-6′-ol] | < 300
19 | CCc1cc2c(c(CC)c1O)C(O)C1(CCC1)CO2 (stereo not drawn) [5,7-diethylspiro[chroman-3,1′-cyclobutane]-4,6-diol] | < 300
20 | Cc1c(O)cc2c(c1C)N(c1ccc(S(C)(=O)=O)cc1)CC1(CCC1)C2 [7′,8′-dimethyl-1′-(4-(methylsulfonyl)phenyl)-2′,4′-dihydro-1′H-spiro[cyclobutane-1,3′-quinolin]-6′-ol] | < 300

The next lines start with the values.

Row | IC50 [nM] | SMILES
21 | < 300 | COCc1c(C)c(O)c(C)c2c1OC1(CCC1)CC2 [8-(methoxymethyl)-5,7-dimethyl-3,4-dihydrospiro[chromene-2,1′-cyclobutan]-6-ol]
22 | < 300 | CCc1c(O)c(C)c(C)c2c1C(NOC)CC1(CCC1)O2 (stereo not drawn) [5-ethyl-4-(methoxyamino)-7,8-dimethyl-3,4-dihydrospiro[chromene-2,1′-cyclobutan]-6-ol]
23 | < 300 | CC(=O)NC1CC2(CCC2)Oc2c(C)c(C)c(O)c(C)c21 (stereo not drawn) [N-(6-hydroxy-5,7,8-trimethyl-3,4-dihydrospiro[chromene-2,1′-cyclobutan]-4-yl)acetamide]
24 | < 300 | Cc1c(C)c2c(c(C)c1OC(=O)CN(C)C)CCC1(CCC1)O2 [5,7,8-trimethyl-3,4-dihydrospiro[chromene-2,1′-cyclobutan]-6-yl (dimethylamino)acetate]
25 | < 300 | CONC1CC2(CCC2)Oc2c(C)c(C)c(O)c(C)c21 (stereo not drawn) [4-(methoxyamino)-5,7,8-trimethyl-3,4-dihydrospiro[chromene-2,1′-cyclobutan]-6-ol]
26 | < 300 | Cc1c(O)cc(C(C)C)c2c1CCC1(CCC1)O2 [8-isopropyl-5-methyl-3,4-dihydrospiro[chromene-2,1′-cyclobutan]-6-ol]
27 | < 300 | CONCc1c2c(c(C(C)C)c(O)c1C(C)C)CCC1(CCC1)O2 [5,7-diisopropyl-8-[(methoxyamino)methyl] 3,4-dihydrospiro[chromene-2,1′-cyclobutan]-6-ol]
28 | < 300 | CC(C)c1c(O)c(C(C)C)c2c(c1C=O)OC1(CCC1)CC2 [6-hydroxy-5,7-diisopropyl-3,4-dihydrospiro[chromene-2,1′-cyclobutane]-8-carbaldehyde]
29 | < 300 | CCONC1CC2(CCC2)Oc2c(C)c(C)c(O)c(CC)c21 (stereo not drawn) [4-(ethoxyamino)-5-ethyl-7,8-dimethyl-3,4-dihydrospiro[chromene-2,1′-cyclobutan]-6-ol]
30 | < 300 | Cc1c(C)c2c(c(C)c1OC(=O)n1ccnc1)CCC1(CCC1)O2 [5,7,8-trimethyl-3,4-dihydrospiro[chromene-2,1′-cyclobutan]-6-yl 1H-imidazole-1-carboxylate]
